Results published in patent publication US20100173930A1, “Certain Chemical Entities, Compositions and Methods” (priority 2006, published 2010).

Test system: SKM MYOFIBRIL
Test: SKM myofibril AC1.4 (ATPase, PK/LDH coupled enzyme system); note: unit not given here
Format: biochemical
Conditions: screen at pCa=6.5

SMILES	SKM MYOFIBRIL AC1.4 (median)
Cc1ccn2c(NCc3ccc(F)cc3F)c(-c3ccccc3O)nc2c1 [2-(3-{[(2,4-difluorophenyl)methyl]amino}-7-methyl-4-hydroimidazo[1,2-a]pyridin-2-yl)phenol]	0.959
Cc1ccn2c(NCc3ccccc3Cl)c(-c3ccccc3O)nc2c1 [2-(3-{[(2-chlorophenyl)methyl]amino}-7-methyl-4-hydroimidazo[1,2-a]pyridin-2-yl)phenol]	1.165
Cc1ccn2c(NCc3ccccc3F)c(-c3ccccc3O)nc2c1 [2-(3-{[(2-fluorophenyl)methyl]amino}-7-methyl-4-hydroimidazo[1,2-a]pyridin-2-yl)phenol]	1.0036
COc1ccccc1CNc1c(-c2ccccc2O)nc2cc(C)ccn12 [2-(3-{[(2-methoxyphenyl)methyl]amino}-7-methyl-4-hydroimidazo[1,2-a]pyridin-2-yl)phenol]	1.9683
Oc1ccccc1-c1nc2ccccn2c1NCc1cccc(Cl)c1 [2-(3-{[(3-chlorophenyl)methyl]amino}-4-hydroimidazo[1,2-a]pyridin-2-yl)phenol]	4.2459
Cc1cn2c(NCc3cccc(Cl)c3)c(-c3ccccc3O)nc2c(C)n1 [2-(3-{[(3-chlorophenyl)methyl]amino}-6,8-dimethyl-4-hydroimidazo[1,2-a]pyrazin-2-yl)phenol]	6.4593
CC(C)(O)c1ccc2nc(-c3ccccc3O)c(NCc3cccc(Cl)c3)n2c1 [2-(3-{[(3-chlorophenyl)methyl]amino}-6-(1-hydroxy-isopropyl)-4-hydroimidazo[1,2-a]pyridin-2-yl)phenol]	2.0993
OCc1ccc2nc(-c3ccccc3O)c(NCc3cccc(Cl)c3)n2c1 [2-(3-{[(3-chlorophenyl)methyl]amino}-6-(hydroxymethyl)-4-hydroimidazo[1,2-a]pyridin-2-yl)phenol]	1.6756
Cc1cn2c(NCc3cccc(Cl)c3)c(-c3ccccc3O)nc2cn1 [2-(3-{[(3-chlorophenyl)methyl]amino}-6-methyl-4-hydroimidazo[1,2-a]pyrazin-2-yl)phenol]	3.6886
Cc1ccc2nc(-c3ccccc3O)c(NCc3cccc(Cl)c3)n2c1 [2-(3-{[(3-chlorophenyl)methyl]amino}-6-methyl-4-hydroimidazo[1,2-a]pyridin-2-yl)phenol]	1.1197
Cc1ccc2nc(-c3ccccc3O)c(NCc3cccc(Cl)c3)n2n1 [2-(3-{[(3-chlorophenyl)methyl]amino}-6-methyl-4-hydroimidazo[1,2-e]pyridazin-2-yl)phenol]	3.5753
CC(CO)c1ccn2c(NCc3cccc(Cl)c3)c(-c3ccccc3O)nc2c1 (centres unmarked) [2-(3-{[(3-chlorophenyl)methyl]amino}-7-(1-hydroxy-isopropyl)-4-hydroimidazo[1,2-a]pyridin-2-yl)phenol]	1.2697
OCc1ccn2c(NCc3cccc(Cl)c3)c(-c3ccccc3O)nc2c1 [2-(3-{[(3-chlorophenyl)methyl]amino}-7-(hydroxymethyl)-4-hydroimidazo[1,2-a]pyridin-2-yl)phenol]	1.9956
CCc1ccn2c(NCc3cccc(Cl)c3)c(-c3ccccc3O)nc2c1 [2-(3-{[(3-chlorophenyl)methyl]amino}-7-ethyl-4-hydroimidazo[1,2-a]pyridin-2-yl)phenol]	0.9168
COc1ccc(-c2nc3cc(C)ccn3c2NCc2cccc(Cl)c2)c(O)c1 [2-(3-{[(3-chlorophenyl)methyl]amino}-7-methyl(4-hydroimidazo[1,2-a]pyridin-2-yl))-5-methoxyphenol]	27.0817
Cc1ccn2c(NCc3cccc(Cl)c3)c(-c3ccccc3O)nc2c1 [2-(3-{[(3-chlorophenyl)methyl]amino}-7-methyl-4-hydroimidazo[1,2-a]pyridin-2-yl)phenol]	0.9522
Cc1ccn2c(NCc3cccc(Cl)c3)c(-c3ncccc3O)nc2c1 [2-(3-{[(3-chlorophenyl)methyl]amino}-7-methyl-4-hydroimidazo[1,2-a]pyridin-2-yl)pyridin-3-ol]	36.9847
Cc1ccn2c(NCc3cccc(Cl)c3)c(-c3ccccc3O)nc2n1 [2-(3-{[(3-chlorophenyl)methyl]amino}-7-methyl-4-hydroimidazo[1,2-a]pyrimidin-2-yl)phenol]	7.147
Cc1ccn2c(NCc3cccc(F)c3)c(-c3ccccc3O)nc2c1 [2-(3-{[(3-fluorophenyl)methyl]amino}-7-methyl-4-hydroimidazo[1,2-a]pyridin-2-yl)phenol]	1.4096
COc1cccc(CNc2c(-c3ccccc3O)nc3cc(C)ccn23)c1 [2-(3-{[(3-methoxyphenyl)methyl]amino}-7-methyl-4-hydroimidazo[1,2-a]pyridin-2-yl)phenol]	10.2909
Cc1ccn2c(NCc3ccc(Cl)cc3)c(-c3ccccc3O)nc2c1 [2-(3-{[(4-chlorophenyl)methyl]amino}-7-methyl-4-hydroimidazo[1,2-a]pyridin-2-yl)phenol]	3.3207

SMILES	SKM MYOFIBRIL AC1.4 (median)
Oc1ccccc1-c1nc2cnccn2c1NCc1ccc(F)cc1 [2-(3-{[(4-fluorophenyl)methyl]amino}-4-hydroimidazo[1,2-a]pyrazin-2-yl)phenol]	4.6013
Oc1ccccc1-c1nc2ccccn2c1NCc1ccc(F)cc1 [2-(3-{[(4-fluorophenyl)methyl]amino}-4-hydroimidazo[1,2-a]pyridin-2-yl)phenol]	3.2661
CC(C)(O)c1ccc2nc(-c3ccccc3O)c(NCc3ccc(F)cc3)n2c1 [2-(3-{[(4-fluorophenyl)methyl]amino}-6-(1-hydroxy-isopropyl)-4-hydroimidazo[1,2-a]pyridin-2-yl)phenol]	4.1299
OCc1ccc2nc(-c3ccccc3O)c(NCc3ccc(F)cc3)n2c1 [2-(3-{[(4-fluorophenyl)methyl]amino}-6-(hydroxymethyl)-4-hydroimidazo[1,2-a]pyridin-2-yl)phenol]	4.3564
Cc1ccn2c(NCc3ccc(F)cc3)c(-c3ccccc3O)nc2c1 [2-(3-{[(4-fluorophenyl)methyl]amino}-7-methyl-4-hydroimidazo[1,2-a]pyridin-2-yl)phenol]	1.1306
Cc1ccn2c(NCc3ccc(F)cn3)c(-c3ccccc3O)nc2c1 [2-(3-{[(5-fluoro(2-pyridyl))methyl]amino}-7-methyl-4-hydroimidazo[1,2-a]pyridin-2-yl)phenol]	7.3934
Oc1ccccc1-c1nc2cccc(Br)n2c1NCc1cccc(Cl)c1 [2-(5-bromo-3-{[(3-chlorophenyl)methyl]amino}-4-hydroimidazo[1,2-a]pyridin-2-yl)phenol]	12.5914
NCc1ccc2nc(-c3ccccc3O)c(NCc3cccc(Cl)c3)n2c1 [2-(6-(aminomethyl)-3-{[(3-chlorophenyl)methyl]amino}-4-hydroimidazo[1,2-a]pyridin-2-yl)phenol]	0.2349
Oc1ccccc1-c1nc2ccc(Br)cn2c1NCc1cccc(Cl)c1 [2-(6-bromo-3-{[(3-chlorophenyl)methyl]amino}-4-hydroimidazo[1,2-a]pyridin-2-yl)phenol]	5.3855
Oc1ccccc1-c1nc2ccc(Br)cn2c1NCc1ccc(F)cc1 [2-(6-bromo-3-{[(4-fluorophenyl)methyl]amino}-4-hydroimidazo[1,2-a]pyridin-2-yl)phenol]	5.6018
Oc1ccccc1-c1nc2ccc(Cl)cn2c1NCc1ccc(F)cc1 [2-(6-chloro-3-{[(4-fluorophenyl)methyl]amino}-4-hydroimidazo[1,2-a]pyridin-2-yl)phenol]	3.5116
Oc1ccccc1-c1nc2cc(Br)ccn2c1NCc1cccc(Cl)c1 [2-(7-bromo-3-{[(3-chlorophenyl)methyl]amino}-4-hydroimidazo[1,2-a]pyridin-2-yl)phenol]	8.3071
CCc1ccn2c(NCc3ccc(F)cc3)c(-c3ccccc3O)nc2c1 [2-(7-ethyl-3-{[(4-fluorophenyl)methyl]amino}-4-hydroimidazo[1,2-a]pyridin-2-yl)phenol]	0.9459
Cc1ccn2c(NCc3ccccc3C)c(-c3ccccc3O)nc2c1 [2-(7-methyl-3-{[(2-methylphenyl)methyl]amino}-4-hydroimidazo[1,2-a]pyridin-2-yl)phenol]	0.9648
Cc1cccc(CNc2c(-c3ccccc3O)nc3cc(C)ccn23)c1 [2-(7-methyl-3-{[(3-methylphenyl)methyl]amino}-4-hydroimidazo[1,2-a]pyridin-2-yl)phenol]	0.9541
Cc1ccc(CNc2c(-c3ccccc3O)nc3cc(C)ccn23)cc1 [2-(7-methyl-3-{[(4-methylphenyl)methyl]amino}-4-hydroimidazo[1,2-a]pyridin-2-yl)phenol]	16.3079
Oc1ccccc1-c1nc2c(Br)cccn2c1NCc1cccc(Cl)c1 [2-(8-bromo-3-{[(3-chlorophenyl)methyl]amino}-4-hydroimidazo[1,2-a]pyridin-2-yl)phenol]	13.2238
Oc1ccccc1-c1nc2ccccn2c1NC1CCCCC1 [2-[3-(cyclohexylamino)-4-hydroimidazo[1,2-a]pyridin-2-yl]phenol]	8.1939
Oc1ccccc1-c1nc2ccccn2c1NC1CCCC1 [2-[3-(cyclopentylamino)-4-hydroimidazo[1,2-a]pyridin-2-yl]phenol]	11.2917
Cc1ccn2c(NC3CCCC3)c(-c3ccccc3O)nc2c1 [2-[3-(cyclopentylamino)-7-methyl-4-hydroimidazo[1,2-a]pyridin-2-yl]phenol]	11.1785
